Experiments:
Type in all cases: biochemical
[1] = target: T1, porcine pancreatic lipase (Sus scrofa, UniProt P00591); assay: p-nitrophenyl palmitate (pNpp) test: inhibition of lipolytic action of porcine pancreatic lipase in vitro; conditions: substrate p-nitrophenyl palmitate, 37° C., absorbance at 405 nm; read-out: IC50, porcine pancreatic lipase-inhibiting action in vitro with respect to pNpp
T1 construct: lipase standard LS7 in accordance with the rules of the “Fédération Internationale Pharmaceutique” (=FIP) (porcine pancreatic lipase, 36,700 FIP units/g); host or cells: porcine pancreas
T1 sequence (P00591 1-450): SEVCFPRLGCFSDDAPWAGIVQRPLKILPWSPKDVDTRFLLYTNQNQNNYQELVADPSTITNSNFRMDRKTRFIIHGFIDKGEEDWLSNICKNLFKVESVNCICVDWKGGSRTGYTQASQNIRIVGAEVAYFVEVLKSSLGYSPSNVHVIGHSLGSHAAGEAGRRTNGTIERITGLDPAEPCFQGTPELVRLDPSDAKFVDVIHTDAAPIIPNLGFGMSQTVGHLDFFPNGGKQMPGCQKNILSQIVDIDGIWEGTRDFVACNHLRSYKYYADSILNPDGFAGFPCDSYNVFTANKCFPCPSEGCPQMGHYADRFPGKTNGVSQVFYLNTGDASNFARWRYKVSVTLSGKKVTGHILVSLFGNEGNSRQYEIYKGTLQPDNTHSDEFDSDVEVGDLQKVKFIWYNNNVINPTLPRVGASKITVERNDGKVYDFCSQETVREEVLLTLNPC
Experimental: 1. p-nitrophenyl Palmitate Test
In this test the inhibition of the lipolytic action of porcine pancreatic lipase with respect to the test substrate p-nitrophenyl palmitate(=pNpp) under the influence of the test substances of Formula I was determined. Therein, the change in the relative absorbance of the investigated solutions caused by the lipolytic release of p-nitrophenol from pNpp was measured.
(§1) The reagents given below were prepared:
To prepare a “solution A”, 45 mg pNpp was dissolved in 15 ml isopropanol by sonication with ultrasound. To prepare a “solution B”, 558 mg Na-deoxycholate dry substance and 67.5 mg gum arabic were dissolved in 135 ml 0.05 M sodium phosphate buffer (pH=8.0). 15 ml “solution A” was injected into 135 ml ice-cold “solution B” in […] of 1.25 ml with an Eppendorf hand dispenser with stirring at 400 rpm at the highest possible rate. The initial absorbance E1 when determining the blank reading was less than 0.250 U each time.
B. Sodium Chloride Solution 1% (mN)
10 g sodium chloride (NaCl, p.a.) was dissolved in 1000 ml ultrapure water.
C. Lipase Standard Solution (50 FIP units/ml)
120.8 mg lipase standard LS7 in accordance with the rules of the “Fédération Internationale Pharmaceutique” (=FIP) (porcine pancreatic lipase, 36,700 FIP units/g) was dissolved in 50 ml ice-cold sodium chloride solution (B) and filtered through a 0.2 μm syringe filter. 20 ml of the filtrate was diluted with […] sodium chloride solution (B) (corresponding to 50 FIP units/ml).
D. Lipase Calibration Solutions (10–20–30–40 FIP units/ml)
In each case 2–4–6–8 ml lipase standard solution (C) was made up to 10 ml with sodium chloride solution (B) and stored in an ice bath.
E. Lipase Stock Solution (40 FIP units/ml)
8 ml lipase standard solution was made up to 10 ml with sodium chloride solution (B) and stored in an ice bath.
The lipase-inhibitory compounds of Formula I were dissolved in DMSO. A dilution series of 100–0.1 nmol/ml was produced from this stock solution. 100 μl of these dilutions were used in the test. The dilutions were adapted such that the maximum residual activity of the lipase was >90%.
Measurement was effected at 37° C., and the absorbances were measured at a wavelength of 405 nm. The photometric measuring station comprised a photometer and an agitator (from Eppendorf). The photometer was adjusted to 0 U with water. At the start and end of the investigation series, in each case eight blank readings and one lipase calibration series were measured. For the blank readings, in each case 1 ml substrate solution was mixed with 100 μl DMSO, the mixture was shaken for 5 seconds and kept at a controlled temperature for 5 minutes. Then 100 μl sodium chloride solution (B) were added thereto by pipette and the mixture was shaken for a further 5 seconds. After 2 minutes, the increase in absorbance was detected for 4 minutes. The absorbance starting value E1 when determining the blank readings was in each case less than 0.250 U.
For the calibration, 1 ml substrate solution was placed in each of eight cuvettes, mixed with 100 μl DMSO, shaken for 5 seconds and kept at a controlled temperature for 5 minutes. The reaction was started with 100 μl calibration solution. After 2 minutes, the kinetics were detected for 4 minutes. Each concentration was measured twice.
For measuring the inhibitor solutions, 1 ml substrate solution was placed in each of eight cuvettes, mixed with 100 μl inhibitor solution, shaken for 5 seconds and then kept at a controlled temperature for 5 minutes. The reaction was started with 100 μl lipase stock solution. After 2 minutes, the kinetics were detected for 4 minutes. The inhibitor solutions and the lipase standard solution were each prepared immediately before the start of the investigation series. […]

pancreatic lipase = assay: Pancreatic lipase-inhibiting action of intermediates of Formula IVa (statement, no method given); conditions: qualitative statement
[2] = target: T1, porcine pancreatic lipase; assay: Olive oil test: inhibition of porcine pancreatic lipase with respect to triglycerides in olive oil (pH-stat titration); conditions: substrate olive oil emulsion, pH 9.0, 37.0° C., 10 minutes pre-incubation in ice bath; read-out: IC50, porcine pancreatic lipase-inhibiting action in vitro with respect to triglycerides in olive oil
Experimental: In a heterogeneous reaction, the inhibition of the lipolytic action of porcine pancreatic lipase was determined under the influence of the test substances of Formula I with respect to the triglycerides contained in the test substrate olive oil. The fatty acids released by the lipase were titrated with sodium hydroxide solution to pH 9.0.
as §1
A. Gum Arabic Solution 10% (m/V)
200 g gum arabic (Acaciae gummi in accordance with the specifications of the German Pharmacopeia (=DAB)/European Pharmacopeia (=Ph.Eur.) was dissolved in 2000 ml ultrapure water with stirring and if necessary centrifugation. The solution was stored at −20° C. in plastic vessels of capacity of 250 ml. The amount required per day was thawed as required.
B. Sodium Taurocholate Solution 8% (m/V)
8 g sodium taurocholate (FIP) was dissolved in 100 ml ultrapure water.
60.6 mg Tris(hydroxymethyl)aminomethane p.a. (Merck, No. 8382) and 234 mg sodium chloride (p.a.) were dissolved in 100 ml ultrapure water.
D. 0.1 N Sodium Hydroxide Solution […]
1 ml lipase reference suspension was incubated with the respective amount of inhibitor solution for 10 minutes in an ice bath. […] The sodium hydroxide consumption between the 1st and the 5th minute was evaluated. […]

CCCCCCC1C(=O)OC1CCCCCOC(=O)NCc1ccccc1 (stereo not shown) [Example 8]
IC50 [1]: 187 nM

CCCCCCC1C(=O)OC1CCCCCOC1CCCCO1 (stereo not shown) [3-hexyl-4-{5[(tetrahydro-2H-pyran-2-yl)oxy]pentyl}oxetan-2-one]
action inhibiting pancreatic lipase (pancreatic lipase): exhibit an action inhibiting pancreatic lipase

CCCCCC[C@@H]1C(=O)O[C@H]1CCCCCOC(=O)Nc1ccc(Oc2ccccc2)cc1 (relative stereo) [Example 1, trans-(3-hexyl-4-oxo-oxetan-2-yl)-pentyl-(phenoxyphenyl)-carbamate]
IC50 [1]: 106 nM | IC50 [2]: 17 nM

CCCCCCC1C(=O)OC1CCCCCOC(=O)Nc1ccc(Cl)c(Cl)c1 (stereo not shown) [Example 13]
IC50 [1]: 319 nM

CCCCCCC1C(=O)OC1CCCCCOC(=O)Nc1ccc(OCC)cc1 (stereo not shown) [Example 9]
IC50 [1]: 67 nM

CCCCCCC1C(=O)OC1CCCCCOC(=O)NCCc1ccccc1 (stereo not shown) [Example 11]
IC50 [1]: 28 nM

CCCCCCC1C(=O)OC1CCCOC(=O)Nc1ccccc1 (racemic) [Example 7]
IC50 [1]: 107 nM

CCCCCCC1C(=O)OC1CCCCCOC(=O)Nc1ccccc1 (mixture of isomers) [Example 2, cis/trans-5-(3-hexyl-4-oxo-oxetan-2-yl)pentyl-phenyl carbamate]
IC50 [1]: 47 nM

CCCCCCC1C(=O)OC1CCCCCOC(=O)NC(=O)c1ccccc1 (stereo not shown) [Example 10]
IC50 [1]: 177 nM

CCCCCC[C@@H]1C(=O)O[C@H]1CCCCCOC(=O)Nc1ccc(Oc2ccccc2)cc1 [Example 6, (2S,3S)-5-(3-hexyl-4-oxo-oxetan-2-yl)-pentyl-(4-phenoxyphenyl)-carbamate]
IC50 [1]: 113 nM

CCCCCCC1C(=O)OC1CCCCCOCc1ccccc1 (stereo not shown) [3-hexyl-4-[5(benzyloxy)pentyl}]oxetan-2-one]
action inhibiting pancreatic lipase (pancreatic lipase): exhibit an action inhibiting pancreatic lipase

CCCCCCC1C(=O)OC1CCCCCOC(=O)NC(C)C (mixture of isomers) [Example 3, cis/trans-5-(3-hexyl-4-oxo-oxetan-2-yl)pentyl-isopropyl carbamate]
IC50 [1]: 88 nM

Source: patent US7074822B2, “Alkyl carbamate-substituted β-lactones, process for their preparation, and pharmaceutical compositions containing them” (Solvay Pharmaceuticals GmbH, priority 2004, dated 2006)
